From ChEMBL document CHEMBL1148240, “3-hydroxy-quinazoline-2,4-dione as a useful scaffold to obtain selective Gly/NMDA and AMPA receptor antagonists” (Bioorg Med Chem Lett, 2004)
pIC50, pKi: −log10 of the molar value.

Legend:
[1] = target: T1, Glutamate receptor ionotropic, AMPA (Rattus norvegicus, UniProt P19490+P19491+P19492+P19493); experiment: Ability of compound to displace [3H]AMPA from Ionotropic glutamate receptor AMPA in rat cerebral cortex synaptic membranes; assay type: cell membranes, Membrane
[2] = target: Glutamate receptor ionotropic, kainate; experiment: Ability of compound to displace [3H]- kainate from ionotropic glutamate receptor kainate in rat cortical membranes; assay type: cell membranes, Membrane
Glutamate NMDA receptor [3] = experiment: Inhibitory concentration of compound for depolarization induced by 5 uM NMDA in mouse cortical wedge preparation; assay type: protein-complex assay
[4] = target: Glutamate receptor ionotropic, NMDA 1 (Rattus norvegicus, UniProt P35439); experiment: Ability of compound to displace [3H]glycine from N-methyl-D-aspartate glutamate receptor 1 from in cerebral cortex synaptic membranes; assay type: cell membranes
[5] = Ability of compound to inhibit the binding of the channel blocking agent [3H](+)-MK-801 in rat cortical membranes; assay type: cell membranes, Membrane
[6] = target: T1, Glutamate receptor ionotropic, AMPA
Description: Inhibitory concentration of compound for depolarization induced by 5 uM S-AMPA in mouse cortical wedge preparation

Glutamate NMDA receptor [7] = target: Glutamate NMDA receptor
Rattus norvegicus = species on record: Rattus norvegicus; experiment: Ability of compound to inhibit the binding of the channel blocking agent [3H](+)-MK-801 in rat cortical membranes at 100 uM concentration; assay type: cell membranes; settings: Membrane

Compound	pKi [1]	pIC50 [2]	pIC50 (Glutamate NMDA receptor [3])	pKi [4]	pIC50 [5]	pIC50 [6]	pKi (Glutamate NMDA receptor [7])	inhibition (Rattus norvegicus) [%]
O=c1[nH]c2cc(Cl)cc(Cl)c2c(=O)n1O	5.01	4.28	4.38	6.70	6.12	4.48	–	–
Nc1cc2c(=O)n(O)c(=O)[nH]c2cc1Cl	5.01	4.15	–	4.97	4.05	–	–	–
O=C(O)c1cc(O)c2c(Cl)cc(Cl)cc2n1	–	–	–	–	–	–	5.33	–
O=c1[nH]c2cc(Cl)ccc2c(=O)n1O	4.94	3.85	–	6.62	5.32	–	–	–
O=c1[nH]c2cc(Cl)c(Cl)cc2c(=O)n1O	4.90	4.17	–	6.52	6.37	–	–	–
O=c1[nH]c2cc(Cl)c(-n3cnnc3)cc2c(=O)n1O	6.60	5.15	4.08	< 4.00	–	5.34	–	29
O=c1[nH]c2cc(Cl)cc(Cl)c2c(=O)n1-c1ccccc1	–	–	–	4.64	–	–	–	–
O=c1[nH]c2cc(Cl)c([N+](=O)[O-])cc2c(=O)n1O	5.89	4.72	4.44	5.96	5.77	4.54	–	–
